pEC50: −log10 of the molar value.
Experiments:
MT4 [1] = test: Cytotoxic concentration required to reduce the viability of mock-infected MT-4 cells by 50%; type: functional; conditions: Homo sapiens
[2] = Effective concentration required to achieve 50% protection of MT-4 cells against the cytopathic effect of HIV-1 virus.; type: functional, cell-based; conditions: Human immunodeficiency virus 1, MT4
MT4 [3] = test: The cytotoxic concentration of compound required to reduce the viability of mock-infected MT-4 cells by 50% on HIV-1 virus A012D strain; type: functional; conditions: Homo sapiens
MT4 [4] = test: The cytotoxic concentration of compound required to reduce the viability of mock-infected MT-4 cells by 50% on HIV-1 virus LAV-2ROD strain; type: functional; conditions: Homo sapiens
MT4 [5] = test: The effective concentration required to achieve 50% protection of MT-4 cells against the cytopathic effect of HIV-1 virus A012D strain; type: functional, cell-based; conditions: Homo sapiens
Mus musculus [6] = organism: Mus musculus; test: Reduced GM-CSF dependent colony formation in murine bone marrow progenitor cells at 0.05 uM; type: functional
Mus musculus [7] = organism: Mus musculus; test: Reduced GM-CSF dependent colony formation in murine bone marrow progenitor cells at 0.5 uM; type: functional
Mus musculus [8] = organism: Mus musculus; test: Reduced GM-CSF dependent colony formation in murine bone marrow progenitor cells at 50 uM; type: functional
Mus musculus [9] = organism: Mus musculus; test: Reduced GM-CSF dependent colony formation in murine bone marrow progenitor cells at 5uM; type: functional
Mus musculus [10] = organism: Mus musculus; test: Reduced IL-3 dependent colony formation in murine bone marrow progenitor cells at 0.05 uM; type: functional
Mus musculus [11] = organism: Mus musculus; test: Reduced IL-3 dependent colony formation in murine bone marrow progenitor cells at 50 uM; type: functional
Mus musculus [12] = organism: Mus musculus; test: Reduced IL-3 dependent colony formation in murine bone marrow progenitor cells at 5uM; type: functional
Homo sapiens [13] = organism: Homo sapiens; test: The cytotoxic concentration of compound required to reduce the viability of mock-infected PBL cells by 50% on HIV-1 virus HTLV-IIIB strain; type: functional
Homo sapiens [14] = organism: Homo sapiens; test: The effective concentration required to achieve 50% protection of human peripheral blood lymphocytes against the cytopathic effect of HIV-1 virus HTLV-IIIB strain; type: functional, organism-based
Mus musculus [15] = organism: Mus musculus; test: Reduced IL-3 dependent colony formation in murine bone marrow progenitor cells at 0.5 uM; type: functional
MT4 [16] = test: The effective concentration required to achieve 50% protection of MT-4 cells against the cytopathic effect of HIV-2 virus LAV-2ROD; type: functional, cell-based; conditions: Homo sapiens
Mus musculus [17] = organism: Mus musculus; test: Reduced GM-CSF dependent colony formation in murine bone marrow progenitor cells at 5 uM; type: functional
Mus musculus [18] = organism: Mus musculus; test: Reduced IL-3 dependent colony formation in murine bone marrow progenitor cells at 5 uM; type: functional

| Compound | CC50 (MT4 [1]) [µM] | pEC50 [2] | other results |
| --- | --- | --- | --- |
| CCOCn1c(Cc2ccccc2)c(CC)c(=O)[nH]c1=O | 245 | 7.39 |  |
| Cc1cn([C@H]2C[C@H](N=[N+]=[N-])[C@@H](CO)O2)c(=O)[nH]c1=O [ZIDOVUDINE] | 7.8 | 8.52 | CC50 (MT4 [3]): 7.8 µM; CC50 (MT4 [4]): 7.8 µM; pEC50 (MT4 [5]): 6.52; Colony_count (Mus musculus [6]): 85; Colony_count (Mus musculus [7]): 70; Colony_count (Mus musculus [8]): 14; Colony_count (Mus musculus [9]): 47; Colony_count (Mus musculus [10]): 141; Colony_count (Mus musculus [11]): 10; Colony_count (Mus musculus [12]): 74; CC50 (Homo sapiens [13]): 12 µM; pEC50 (Homo sapiens [14]): 8.70; Colony_count (Mus musculus [15]): 109 |
| CCc1c(Cc2ccccc2)n(COCCO)c(=O)[nH]c1=O | 391 | 6.46 |  |
| Cc1c(-c2ccccc2)n(COCCO)c(=O)[nH]c1=O | 166 | < 3.78 |  |
| Cc1c(Cc2ccccc2)n(COCCO)c(=O)[nH]c1=O |  | 4.64 |  |
| CCc1c(Cc2cc(C)cc(C)c2)n(COCCO)c(=O)[nH]c1=O | 281 | 7.89 |  |
| COCCn1c(Cc2ccccc2)c(C(C)C)c(=O)[nH]c1=O | 195 | 7.28 |  |
| CCOCn1c(Cc2cc(C)cc(C)c2)c(CC)c(=O)[nH]c1=O | 207 | 8.80 |  |
| Cc1c(Sc2ccccc2)n(COCCO)c(=O)[nH]c1=O [HEPT] | 740 | 5.15 |  |
| CCCCn1c(Cc2ccccc2)c(C(C)C)c(=O)[nH]c1=O | 58 | 7.38 |  |
| Cc1c(CCc2ccccc2)n(COCCO)c(=O)[nH]c1=O | 444 | < 3.35 |  |
| CCc1c(Cc2ccccc2)n(CCOC)c(=O)[nH]c1=O | 362 | 6.60 |  |
| CC(C)c1c(Cc2ccccc2)n(COCCO)c(=O)[nH]c1=O | 295 | 7.20 |  |
| CCOCn1c(Cc2cc(C)cc(C)c2)c(C(C)C)c(=O)[nH]c1=O | 43 | 9.22 |  |
| CCOCn1c(Cc2ccccc2)c(C(C)C)c(=O)[nH]c1=O [EMIVIRINE] | 186 | 8.38 | CC50 (MT4 [3]): 102 µM; CC50 (MT4 [4]): 102 µM; pEC50 (MT4 [5]): 8.52; pEC50 (MT4 [16]): < 3.99; Colony_count (Mus musculus [6]): 89; Colony_count (Mus musculus [7]): 75; Colony_count (Mus musculus [8]): 57; Colony_count (Mus musculus [17]): 77; Colony_count (Mus musculus [10]): 136; Colony_count (Mus musculus [11]): 109; Colony_count (Mus musculus [18]): 137; CC50 (Homo sapiens [13]): 90 µM; pEC50 (Homo sapiens [14]): 8.40; Colony_count (Mus musculus [15]): 137 |
| Cc1cc(C)cc(Cc2c(C(C)C)c(=O)[nH]c(=O)n2COCCO)c1 | 221 | 8.57 |  |
| CCCCn1c(Cc2ccccc2)c(CC)c(=O)[nH]c1=O | > 500 | 6.68 |  |

Source: ChEMBL document CHEMBL1128585, “Synthesis and antiviral activity of 6-benzyl analogs of 1-[(2-hydroxyethoxy)methyl]-6-(phenylthio)thymine (HEPT) as potent and selective anti-HIV-1 agents” (J Med Chem, 1995)
